These are literature values, as cited in patent US20200281877A1, “METHOD FOR PREVENTION AND TREATMENT OF ACNE, ECZEMA, PSORIASIS, AND RELATED DERMATOLOGICAL CONDITIONS WITH COMPOSITION COMPRISING A SPHINGOLIPID AND SULPHUR COMPOUNDS” (priority 2018, published 2020).

The data set concerns SA_SCD (sphingolipid ceramide N-deacylase).

On to `[Zn+2]` [bivalent zinc (Zn^2+)], for which the “hydrolytic activity of SA_SCD” value (optimal pH 6.0) is on record as “strongly inhibited”. For the same compound, the “synthetic activity of SA_SCD” value (optimal pH 7.5) is listed as “strongly inhibited”.
